Like-named read-outs stand apart in the source and are kept apart here.
Target: T1, human M2 receptor (Homo sapiens, UniProt P08172)
T1 sequence (P08172 1-466): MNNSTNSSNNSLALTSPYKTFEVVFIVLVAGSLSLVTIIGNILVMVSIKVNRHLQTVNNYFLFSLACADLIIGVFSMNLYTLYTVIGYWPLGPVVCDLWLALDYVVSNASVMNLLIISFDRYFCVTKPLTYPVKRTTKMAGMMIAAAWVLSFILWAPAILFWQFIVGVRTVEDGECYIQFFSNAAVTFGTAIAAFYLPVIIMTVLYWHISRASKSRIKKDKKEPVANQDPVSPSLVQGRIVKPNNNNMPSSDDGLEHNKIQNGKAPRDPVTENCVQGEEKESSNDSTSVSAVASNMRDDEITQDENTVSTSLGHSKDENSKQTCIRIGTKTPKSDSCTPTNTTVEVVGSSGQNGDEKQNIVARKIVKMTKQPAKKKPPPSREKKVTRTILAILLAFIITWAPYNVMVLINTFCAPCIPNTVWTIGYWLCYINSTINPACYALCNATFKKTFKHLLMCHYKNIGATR
Settings: for Emax: read-out: Efficiency, boosting of the acetylcholine effect at EC20 acetylcholine concentration; for Efficiency: boosting of the acetylcholine effect at EC20 acetylcholine concentration

[1] = Receptor activity EC50, allosteric potency at EC20 acetylcholine, M2-GIRK1/4 reporter cells, in some cases mean of two or more determinations
[2] = Receptor activity EC50, M2-GIRK1/4 activation test, acetylcholine at EC20, allosteric potency, in some cases mean values from two or more determinations

Row | EC50 [2] | SMILES | also measured
1 | 60 nM | CC[C@@H](NC(=O)c1cn(-c2ccc(F)cc2F)c2nc(N3CC(C)CC3=O)ccc2c1=O)C(F)(F)F (single isomer, unassigned) [Example 303] | 
2 | 72 nM | C[C@H](NC(=O)c1cn(-c2c(F)cccc2F)c2nc(N3CC4CC4(O)C3)ccc2c1=O)C(F)(F)F (single isomer, unassigned) [Example 312] | 
3 | 71 nM | C[C@H](NC(=O)c1cn(-c2c(F)cccc2F)c2nc(N3CC4CC4(O)C3)ccc2c1=O)C(F)(F)F (single isomer, unassigned) [Example 313] | 
4 | 26 nM | C[C@H](NC(=O)c1cn(-c2c(F)cc(F)cc2F)c2nc(N3CC4CC4(O)C3)ccc2c1=O)C(F)(F)F (single isomer, unassigned) [Example 317] | 
5 | 14 nM | C[C@H](NC(=O)c1cn(-c2c(F)cc(F)cc2F)c2nc(N3CC4CC4(O)C3)ccc2c1=O)C(F)(F)F (single isomer, unassigned) [Example 318] | 
6 | 6 nM | CC(C)(CC(F)(F)F)NC(=O)c1cn(-c2c(F)cc(F)cc2Cl)c2nc(N3C[C@@H](O)[C@H](O)C3)ccc2c1=O (single isomer, unassigned) [Example 392] | 
7 | 125 nM | CC(C)(CC(F)(F)F)NC(=O)c1cn(-c2c(F)cc(F)cc2Cl)c2nc(N3C[C@@H](O)[C@H](O)C3)ccc2c1=O (single isomer, unassigned) [Example 393] | 

More lines, now with the values behind:

Row | SMILES | EC50 [2] | also measured
8 | CC(NC(=O)c1cn(-c2ccc(F)cc2F)c2nc(N3C[C@@H](O)CC3=O)ccc2c1=O)C(F)(F)C(F)(F)F (mixture of isomers) [Example 622, 1-(2,4-Difluorophenyl)-7-[(4S)-4-hydroxy-2-oxopyrrolidin-1-yl]-4-oxo-N-[3,3,4,4,4-pentafluorobutan-2-yl]-1,4-dihydro-1,8-naphthyridine-3-carboxamide] |  | EC50 [1]: 43 nM; Emax (M2-GIRK1/4 reporter cells): 93%
9 | O=C(NC12CC(C1)C2)c1cn(-c2c(F)cc(F)cc2F)c2nc(N3CC(O)C4(CC4)C3)ccc2c1=O (racemic) [Example 626, N-(Bicyclo[1.1.1]pent-1-yl)-7-[7-hydroxy-5-azaspiro[2.4]hept-5-yl]-4-oxo-1-(2,4,6-trifluorophenyl)-1,4-dihydro-1,8-naphthyridine-3-carboxamide] |  | EC50 [1]: 44 nM; Emax (M2-GIRK1/4 reporter cells): 93.5%
10 | O=C(NC12CC(C1)C2)c1cn(-c2c(F)cc(F)cc2F)c2nc(N3CC(O)C4(CC4)C3)ccc2c1=O (racemic) [Example 628, N-(Bicyclo[1.1.1]pent-1-yl)-7-[7-hydroxy-5-azaspiro[2.4]hept-5-yl]-4-oxo-1-(2,4,6-trifluorophenyl)-1,4-dihydro-1,8-naphthyridine-3-carboxamide] |  | Efficiency (M2-GIRK1/4 reporter cells): 89.5%
11 | O=C(N[C@@H](C1CC1)C(F)(F)F)c1cn(-c2c(F)cc(F)cc2F)c2nc(N3CC(CO)OC3=O)ccc2c1=O (mixture of isomers) [Example 659, N-[(1S)-1-Cyclopropyl-2,2,2-trifluoroethyl]-7-[5-(hydroxymethyl)-2-oxo-1,3-oxazolidin-3-yl]-4-oxo-1-(2,4,6-trifluorophenyl)-1,4-dihydro-1,8-naphthyridine-3-carboxamide] |  | EC50 [1]: 81 nM; Emax (M2-GIRK1/4 reporter cells): 98%
12 | CC[C@@H](NC(=O)c1cn(-c2ccc(F)cc2F)c2nc(N3CCC(C)(O)C3=O)ccc2c1=O)C(F)(F)F (single isomer, unassigned) [Example 195] | 343 nM | 
13 | CC[C@@H](NC(=O)c1cn(-c2ccc(F)cc2F)c2nc(N3CCC(C)(O)C3=O)ccc2c1=O)C(F)(F)F (single isomer, unassigned) [Example 196] | 137 nM | 
14 | O=C(N[C@H](c1ccccc1Cl)C(F)(F)F)c1cn(-c2ccc(F)cc2F)c2nc(N3CCCC(O)C3=O)ccc2c1=O (single isomer, unassigned) [Example 209] | 163 nM | 
15 | O=C(N[C@H](c1ccccc1Cl)C(F)(F)F)c1cn(-c2ccc(F)cc2F)c2nc(N3CCCC(O)C3=O)ccc2c1=O (single isomer, unassigned) [Example 210] | 285 nM | 
16 | CC(NC(=O)c1cn(-c2ccc(F)cc2F)c2nc(N3C[C@@H](O)CC3=O)ccc2c1=O)c1c(F)cccc1F (single isomer, unassigned) [Example 215] | 178 nM | 
17 | CC[C@@H](NC(=O)c1cn(-c2ccc(F)cc2F)c2nc(N3CC4CNC(=O)C4C3)ccc2c1=O)C(F)(F)F (single isomer, unassigned) [Example 222] | 200 nM | 
18 | O=C(NC(c1c(F)cccc1F)C(F)(F)F)c1cn(-c2ccc(F)cc2F)c2nc(N3CCCC(O)C3=O)ccc2c1=O (single isomer, unassigned) [Example 248, 1-(2,4-Difluorophenyl)-N-[1-(2,6-difluorophenyl)-2,2,2-trifluoroethyl]-7-[3-hydroxy-2-oxopiperidin-1-yl]-4-oxo-1,4-dihydro-1,8-naphthyridine-3-carboxamide] | 330 nM | 
19 | O=C(NC(c1c(F)cccc1F)C(F)(F)F)c1cn(-c2ccc(F)cc2F)c2nc(N3CCCC(O)C3=O)ccc2c1=O (single isomer, unassigned) [Example 249, 1-(2,4-Difluorophenyl)-N-[1-(2,6-difluorophenyl)-2,2,2-trifluoroethyl]-7-[3-hydroxy-2-oxopiperidin-1-yl]-4-oxo-1,4-dihydro-1,8-naphthyridine-3-carboxamide] | 505 nM | 
20 | O=C(NC(c1c(F)cccc1F)C(F)(F)F)c1cn(-c2ccc(F)cc2F)c2nc(N3CCCC(O)C3=O)ccc2c1=O (single isomer, unassigned) [Example 251, 1-(2,4-Difluorophenyl)-N-[1-(2,6-difluorophenyl)-2,2,2-trifluoroethyl]-7-[3-hydroxy-2-oxopiperidin-1-yl]-4-oxo-1,4-dihydro-1,8-naphthyridine-3-carboxamide] | 163 nM | 
21 | O=C(NC(c1c(F)cccc1F)C(F)(F)F)c1cn(-c2ccc(F)cc2F)c2nc(N3CCC(O)CC3=O)ccc2c1=O (single isomer, unassigned) [Example 253, 1-(2,4-Difluorophenyl)-N-[1-(2,6-difluorophenyl)-2,2,2-trifluoroethyl]-7-[4-hydroxy-2-oxopiperidin-1-yl]-4-oxo-1,4-dihydro-1,8-naphthyridine-3-carboxamide] | 483 nM | 
22 | O=C(NC(c1c(F)cccc1F)C(F)(F)F)c1cn(-c2ccc(F)cc2F)c2nc(N3CCC(O)CC3=O)ccc2c1=O (single isomer, unassigned) [Example 254, 1-(2,4-Difluorophenyl)-N-[1-(2,6-difluorophenyl)-2,2,2-trifluoroethyl]-7-[4-hydroxy-2-oxopiperidin-1-yl]-4-oxo-1,4-dihydro-1,8-naphthyridine-3-carboxamide] | 337 nM | 
23 | O=C(NC(c1c(F)cccc1F)C(F)(F)F)c1cn(-c2ccc(F)cc2F)c2nc(N3CCC(O)CC3=O)ccc2c1=O (single isomer, unassigned) [Example 256, 1-(2,4-Difluorophenyl)-N-[1-(2,6-difluorophenyl)-2,2,2-trifluoroethyl]-7-[4-hydroxy-2-oxopiperidin-1-yl]-4-oxo-1,4-dihydro-1,8-naphthyridine-3-carboxamide] | 147 nM | 
24 | CC[C@@H](NC(=O)c1cn(-c2ccc(F)cc2F)c2nc(N3CCOC(C(F)F)C3)ccc2c1=O)C(F)(F)F (single isomer, unassigned) [Example 264] | 530 nM | 
25 | CC[C@@H](NC(=O)c1cn(-c2ccc(F)cc2F)c2nc(N3CCOC(C(F)F)C3)ccc2c1=O)C(F)(F)F (single isomer, unassigned) [Example 265] | 23700 nM | 
26 | CC[C@@H](NC(=O)c1cn(-c2ccccc2C(F)(F)F)c2nc(N3C[C@@H](O)CC3=O)ccc2c1=O)C(F)(F)F (single isomer, unassigned) [Example 269] | 210 nM | 
27 | CC[C@@H](NC(=O)c1cn(-c2ccccc2C(F)(F)F)c2nc(N3C[C@@H](O)CC3=O)ccc2c1=O)C(F)(F)F (single isomer, unassigned) [Example 270] | 1600 nM | 
28 | CC[C@@H](NC(=O)c1cn(-c2c(F)cccc2F)c2nc(N3CCC(C)(O)C3)ccc2c1=O)C(F)(F)F (single isomer, unassigned) [Example 277] | 78 nM | 
29 | O=C(NC(c1ccccc1Cl)C(F)(F)F)c1cn(-c2ccccc2F)c2nc(N3CCC(O)C3=O)ccc2c1=O (single isomer, unassigned) [Example 290] | 312 nM | 
30 | O=C(NC(c1ccccc1Cl)C(F)(F)F)c1cn(-c2ccccc2F)c2nc(N3CCC(O)C3=O)ccc2c1=O (single isomer, unassigned) [Example 291] | 673 nM | 
31 | CC[C@@H](NC(=O)c1cn(-c2c(F)cccc2F)c2nc(N3CCC(O)C3=O)ccc2c1=O)C(F)(F)F (single isomer, unassigned) [Example 293] | 73 nM | 
32 | CC[C@@H](NC(=O)c1cn(-c2ccc(F)cc2F)c2nc(N3CC(C)CC3=O)ccc2c1=O)C(F)(F)F (single isomer, unassigned) [Example 302] | 17 nM | 
33 | CCC(COC(F)(F)F)NC(=O)c1cn(-c2c(F)cc(F)cc2F)c2nc(N3C[C@@H](O)CC3=O)ccc2c1=O (single isomer, unassigned) [Example 411] |  | EC50 [1]: 21 nM; Emax (M2-GIRK1/4 reporter cells): 100%
34 | CC[C@H](NC(=O)c1cn(-c2c(F)cc(F)cc2Cl)c2nc(N3CCC(C)C3=O)ccc2c1=O)C(F)(F)F (single isomer, unassigned) [Example 423] |  | EC50 [1]: 3150 nM; Efficiency (M2-GIRK1/4 reporter cells): 53.5%
